Here are results for 31 compounds from patent US9695182B2, “Chemical compounds (derivatives) and their application for the treatment of oncological diseases” (LIMITED LIABILITY COMPANY “NATIONAL PHARMACEUTICAL …, priority 2013, dated 2017).

A word on the IC50: it is the concentration at which inhibition is half-maximal.

One data set deals with Karpas-299 cells. The experiment in a line: Efficacy in animal model of anaplastic large cell lymphoma (Karpas-299 tumors). The conditions noted are these: 30 mg/kg daily by gavage, 23 days; ratio of average tumor volume treatment/control. The class given is in vivo, SCID-mice. The procedure: (§1) SCID-mice with tumors that have developed as a result of the introduction of Karpas-299 cells were used for the studies. When tumor size reached 220 mm^3 animals were divided into the treatment and control groups and were randomized by tumor size. The control animals received daily 0.3 ml of 0.5% of methylcellulose solution, animals of the treatment group—0.3 ml of 0.5% of methylcellulose suspension containing the drug in a test dose. The solutions were administered by gavage. The treatment continued for 23 days. The ratio of the average volume for the treatment/control groups (% T/C) was calculated after treatment to determine the effectiveness of inhibition of tumor growth. The analysis of the statistical significance using Dunnett's test was performed for the data collection. Effectiveness of the test compounds in a dose of 30 mg/kg is introduced below.
As for `O=C(Nc1ccc(N2CCOCC2)cc1)c1cc2c(nn1)NCCN2Cc1cc(Cl)ccc1Cl` [drawing 245], the “% T/C” value is given as less than 40%.
Consider `Clc1ccc(Cl)c(CN2CCNc3nnc(-c4nnc(C5CCNCC5)[nH]4)cc32)c1` [drawing 242], for which the “% T/C” value was less than 40%.
`CC(c1c(Cl)ccc(F)c1Cl)N1CCNc2nnc(C(=O)Nc3ccc(C(=O)N4CCCC4)cc3)cc21` (stereo not shown) [drawing 243]: the “% T/C” value is given as less than 40%.
The same measure, in the same setting: in the case of `Fc1ccc(Cl)c(CN2CCNc3nnc(-c4nnc(C5CCNCC5)[nH]4)cc32)c1Cl` [drawing 246] it was less than 40%; in that of `CN1CCN(C(=O)c2ccc(NC(=O)c3cc4c(nn3)NCCN4Cc3cc(Cl)ccc3Cl)cc2)CC1` [drawing 244], less than 40%; in that of `Clc1ccc(Cl)c(CN2CCNc3nnc(-c4nnc(C5CCNCC5)o4)cc32)c1` [drawing 247], less than 40%.

The test system of another data set is NCI-H3122 cells. The experiment in a line: Efficacy in animal model of non-small cell lung cancer (NCI-H3122 tumors). The class given is in vivo, male athymic mice. The conditions noted are these: 30 mg/kg daily by gavage, 20 days; ratio of average tumor volume treatment/control. How it is done:
as §1, with “The male athymic mice” for “SCID-mice with tumors that have developed as a result of the introduction of Karpas-299 cells”, “NCI-H3122 cells in an amount of 1×10^7 were administered in the form of 0.2 ml Matrigel solution (BD Pharmingen) in the left leg of the mouse under ketamine-xylazine anesthesia. One week after cells injection mice” for “When tumor size reached 220 mm^3 animals”, “and” for “and were”, “size. Tumor volume was calculated according to the formula V=0.5×W^2×L.” for “size.”, “group −0.3” for “group—0.3”, “20” for “23”
Take `Clc1ccc(Cl)c(CN2CCNc3nnc(-c4nnc(C5CCNCC5)o4)cc32)c1` [drawing 241]: the “% T/C” value is reported as less than 40%.
As to `CN1CCN(C(=O)c2ccc(NC(=O)c3cc4c(nn3)NCCN4Cc3cc(Cl)ccc3Cl)cc2)CC1` [drawing 238], the “% T/C” value is reported as less than 40%.
Take `Clc1ccc(Cl)c(CN2CCNc3nnc(-c4nnc(C5CCNCC5)[nH]4)cc32)c1` [drawing 236]: the “% T/C” value is given as less than 40%.
The same measure, in the same setting: under `Fc1ccc(Cl)c(CN2CCNc3nnc(-c4nnc(C5CCNCC5)[nH]4)cc32)c1Cl` [drawing 240] stands less than 40%; under `CC(c1c(Cl)ccc(F)c1Cl)N1CCNc2nnc(C(=O)Nc3ccc(C(=O)N4CCCC4)cc3)cc21` (stereo not shown) [drawing 237], less than 40%.
Consider `O=C(Nc1ccc(N2CCOCC2)cc1)c1cc2c(nn1)NCCN2Cc1cc(Cl)ccc1Cl` [drawing 239], for which the “% T/C” value is given as less than 40%.

The next data set has as its system Karpas-299. In words: Antiproliferative activity on KARPAS-299 cells (MTS). It counts as cell-based. The settings on record: Homo sapiens, concentration at which the number of living cells is reduced 2-fold compared with absence of compound. The procedure:
Furthermore, antiproliferative activity of the compounds of this invention can be studied on cell lines KARPAS-299 of anaplastic large cell lymphoma according to the following procedure. KARPAS-299 cells cultured in RPMI 1640 growth medium, are transferred in duplicate to 96-well culture plate (10,000 cells per well) and a solution of the analytes in a growth medium is added to them at various concentrations (final volume in each well—100 μl). The solids were dissolved in DMSO and then the solution was diluted with DMSO to the desired concentration, mixed with an equal volume of growth medium and transferred to wells with the cells. The final concentration of compounds ranged from 0.5 nM to 10 μM. DMSO was used as a control (in the same amount as that of adding solutions of substances). After the cells incubation with the compounds for 72 hours, the number of viable cells was determined. For this purpose, old medium was removed, 100 μl of fresh medium and 40 μl of MTS solution, containing 5 mg/ml PBS were added to each well. The plate was incubated for 2 hours at 37° C., then 100 μl of DMSO was added to each well and mixed for 1 minute. Then, the optical density was determined at 490 nm and percentage of inhibition of proliferation was calculated in comparison with the control (containing no analytes).
On to `CC(C)c1noc(-c2cc3c(nn2)NCCN3Cc2c(Cl)ccc(F)c2Cl)n1`, for which the IC50 was less than 1000 nM.
The compound `Clc1ccc(Cl)c(CN2CCNc3nnc(-c4nnc(C5CCNCC5)[nH]4)cc32)c1` [drawing 218] registered an IC50 of less than 100 nM.
Still for that read-out and setting: in the case of `C[C@H](c1cc(Cl)ccc1C(F)(F)F)N1CCNc2nnc(Nc3cccc(N4CCOCC4)c3)cc21` it was less than 100 nM; in that of `Fc1ccc(Cl)c(CN2CCNc3nnc(-c4ccc(N5CCOCC5)cc4)cc32)c1Cl`, less than 100 nM.
`C[C@H](c1c(Cl)ccc(F)c1Cl)N1CCNc2nnc(Nc3cccc(N4CCOCC4)c3)cc21` showed an IC50 of less than 100 nM.
As to `CN1CCN(C(=O)c2ccc(NC(=O)c3cc4c(nn3)NCCN4Cc3cc(Cl)ccc3Cl)cc2)CC1` [drawing 231], the IC50 was less than 100 nM.
The same measure, in the same setting: in the case of `O=C(Nc1ccc(N2CCOCC2)cc1)c1cc2c(nn1)NCCN2Cc1cc(Cl)ccc1Cl` [drawing 232] it was less than 100 nM; in that of `Clc1ccc(Cl)c(CN2CCNc3nnc(CNC4CCNCC4)cc32)c1`, less than 1000 nM.
Consider `O=C(NCCc1ccccc1)c1cc2c(nn1)NCCN2Cc1c(Cl)ccc(F)c1Cl`, for which the IC50 is less than 1000 nM.
In turn, `CN1CCC(c2nnc(-c3cc4c(nn3)NCCN4Cc3c(Cl)ccc(F)c3Cl)o2)CC1` registered an IC50 of less than 100 nM.
As for `C[C@H](c1c(Cl)ccc(F)c1Cl)N1CCNc2nnc(-c3ccc(N4CCCC4)nc3)cc21`, the half-maximal inhibitory concentration (IC50) was less than 100 nM.
Turning to `COc1cc(N2CCC(N(C)C)CC2)ccc1Nc1cc2c(nn1)NCCN2Cc1c(Cl)ccc(F)c1Cl`, the IC50 was less than 100 nM.
For the compound `CC(c1c(Cl)ccc(F)c1Cl)N1CCNc2nnc(C(=O)Nc3ccc(C(=O)N4CCCC4)cc3)cc21` (stereo not shown) [drawing 228], the concentration for half-maximal inhibition (IC50) was less than 100 nM.
Same read-out and setting: in the case of `Fc1ccc(Cl)c(CN2CCNc3nnc(-c4nnc(C(F)(F)F)[nH]4)cc32)c1Cl` it was less than 1000 nM.
For the compound `O=C(c1cc2c(nn1)NCCN2Cc1c(Cl)ccc(F)c1Cl)N1CCN(c2ccccc2)CC1`, the IC50 was less than 100 nM.
Compound `Fc1ccc(Cl)c(CN2CCNc3nnc(-c4nnc(C5CCNCC5)[nH]4)cc32)c1Cl` [drawing 233] came in with an IC50 of less than 100 nM.
For the compound `Clc1ccc(Cl)c(CN2CCNc3nnc(-c4nnc(C5CCNCC5)o4)cc32)c1` [drawing 234], the IC50 was less than 100 nM.
In turn, `C[C@H](c1c(Cl)ccc(F)c1Cl)N1CCNc2nnc(-c3nc(C4CCNCC4)no3)cc21` yielded an IC50 of less than 100 nM.

Test system in the next data set: not given
Assay: not given
The conditions noted are these: in vivo; cited from earlier work.
For `C[C@@H](Oc1cc(-c2cnn(C3CCNCC3)c2)cnc1N)c1c(Cl)ccc(F)c1Cl` [Crizotinib], the “penetration through the blood-brain barrier” value is listed as “does not penetrate through the blood-brain barrier”.
